In US20100069501A1, “Pharmaceutical Composition Comprising 6-Dimethylaminomethyl-1-(3-methoxy-phenyl)-cyclohexane-1,3-diol and Paracetamol” (GRUENENTHAL GmbH, priority 2008, published 2010):
Structures can show the parent of a compound that is named as a salt.

System: inflammatory pain
Assay: Randall-Selitto test in rats (carrageenan-induced acute inflammation, mechanical nociceptive threshold)
Type: in vivo
Conditions: rat; for time point of peak effect: substance applied alone, A i.v., paracetamol i.p.
Procedure: The weight ratios of the components (a) and (b) that will lead to a supra-additive effect (synergistic effect) of the inventive pharmaceutical composition may be determined via the test of Randall and Selitto as described in Arch. Int. Pharmacodyn., 1957, 111: 409 to 419, which is a model for inflammatory pain. The respective part of the literature is hereby incorporated by reference and forms part of the present disclosure.
Acute inflammation is induced by an intraplantar injection of 0.1 ml of a carrageenan solution (0.5% in distilled water) into one hind paw. The mechanical nociceptive threshold is measured 4 hours after carrageenan injection using an Algesiometer (Ugo Basile, Italy). The device generates a mechanical force with a linear increase over time. The force is applied to the dorsal surface of the inflamed rat hind paw via a cone-shaped stylus with a rounded tip (2 mm tip diameter). The nociceptive threshold is defined as the force (in grams) at which the rat vocalises (cut-off force 250 g). […] The antinociceptive and antihyperalgesic activity of the tested substance is expressed as percentages of the maximal possible effect (% MPE). The group size is n=10.
The interactions studies presented herein were performed using equieffective doses of the two components, calculated from the ratio of the respective ED50 values of the components if administered alone.
Thus, the time point of ED50 calculation of the combination corresponds to the timepoint of the peak effect of the respective compound.

Row | Compound | ED50 (iv, 0.25 h, i.v., 15 min p. appl. (peak effect), % MPE, n=10, read-out: ED50 of A applied alone) | time point of peak effect
1 | COc1cccc([C@@]2(O)C[C@H](O)CC[C@@H]2CN(C)C)c1 (racemic) [A, (1RS,3RS,6RS)-6-dimethylaminomethyl-1-(3-methoxy-phenyl)-cyclohexane-1,3-diol hydrochloride] | 15.8 mg/kg | 15 min
2 | CC(=O)Nc1ccc(O)cc1 [Paracetamol] | – | 120 min
